Biological target: Muscarinic acetylcholine receptor M3 (Rattus norvegicus, UniProt P08483)
Sequence (P08483 whole entry): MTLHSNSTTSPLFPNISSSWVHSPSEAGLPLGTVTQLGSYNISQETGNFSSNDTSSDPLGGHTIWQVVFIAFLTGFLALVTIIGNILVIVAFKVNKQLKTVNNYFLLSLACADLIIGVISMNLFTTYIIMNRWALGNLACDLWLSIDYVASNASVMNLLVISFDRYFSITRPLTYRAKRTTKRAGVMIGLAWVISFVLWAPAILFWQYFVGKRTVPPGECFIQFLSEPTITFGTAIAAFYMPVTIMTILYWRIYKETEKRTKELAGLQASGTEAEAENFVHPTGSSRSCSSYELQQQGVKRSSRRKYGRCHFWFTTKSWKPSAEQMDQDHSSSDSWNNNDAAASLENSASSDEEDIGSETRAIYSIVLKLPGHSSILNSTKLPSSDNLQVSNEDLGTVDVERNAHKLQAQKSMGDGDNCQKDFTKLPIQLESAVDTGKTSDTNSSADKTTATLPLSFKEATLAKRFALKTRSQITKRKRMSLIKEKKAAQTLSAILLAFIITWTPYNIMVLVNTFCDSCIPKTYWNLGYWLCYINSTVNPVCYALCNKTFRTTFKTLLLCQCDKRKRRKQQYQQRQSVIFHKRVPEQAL

With `C[N+](C)(C)CC#CCN1CCCC1=O` as the compound, how does the Ki read?
The Ki was 8.7 µM.
